In one data set the target is Bcl6 (Homo sapiens (Human), UniProt P41182). As to the kind of experiment: Bcl-6 protein degradation experiment in Farage cells. It is filed as cell-based. Particulars: 24 hours. On the procedure: 2. Bcl-6 Protein Degradation Experiment in Farage Cells
Farage cells purchased from ATCC were placed in an RPMI-1640 complete medium (containing 10% fetal bovine serum, 100 U/mL penicillin and 100 μg/mL streptomycin) and cultured at 37° C. and 5% CO2. The cells in the logarithmic growth phase were collected, and the cell suspension was adjusted to an appropriate density with the culture medium and added to a 6-well cell culture plate at a volume of 1 mL/well. The compounds to be tested were prepared to 2-fold the final concentration, 1 mL of the compounds at different concentrations were added to administration wells, a medium containing 0.2% DMSO was added to control wells, and the plate was incubated at 37° C. for 24 hours. The cells were collected into a 1.5 mL centrifuge tube, 25 μL of RIPA lysis buffer (containing 1× protease inhibitor cocktail) was added, and the cells were lysed on ice for 15 minutes and centrifuged at 12000 rpm/min at 4° C. for 10 minutes. The supernatant was collected and the protein content was determined using the BCA method. The protein sample to be tested was diluted to 0.8 mg/mL, Bcl6 was detected using a fully automated protein expression quantitative analyzer (ProteinSimple), and the internal reference protein was R-actin (both antibodies were from CST). The software (Compass for SW) of the fully automated protein expression quantitative analyzer was used to process the raw data and calculate the peak area and the Bcl6 expression rate relative to the control group. DC50 values were calculated using a four-parameter non-linear fitting model in Graphpad 8.3.0 software.
On to `CNC(=O)COc1cc2cc(Nc3nc(N4CCC(CN5CCN(c6cccc7c6n(C)c(=O)n7C6CCC(=O)NC6=O)CC5)CC4)ncc3Cl)ccc2n(C)c1=O` (stereo not drawn) [Compound 9], for which the DC50 (as a rule, the concentration giving 50% degradation) is under 10 nM.

`CC(=O)COc1cc2cc(Nc3nc(N4CCC(CN5CCN(c6cccc7c6n(C)c(=O)n7C6CCC(=O)NC6=O)CC5)CC4)ncc3Cl)ccc2n(C)c1=O` (stereo not drawn) [Compound 10]: the half-maximal degradation concentration (DC50) is under 10 nM.

`CNC(=O)COc1cc2cc(Nc3nc(N4CCN(CC5CCN(Cc6cccc7c6n(C)c(=O)n7C6CCC(=O)NC6=O)CC5)CC4)ncc3Cl)ccc2n(C)c1=O` (stereo not drawn) [Compound 12] returned a DC50 of under 10 nM.

On to `CC(=O)COc1cc2cc(Nc3nc(N4CCN(CC5CCN(c6cc(F)c(C7CCC(=O)NC7=O)c(F)c6)CC5)CC4)ncc3Cl)ccc2n(C)c1=O` (stereo not drawn) [Compound 22], for which the DC50 was under 10 nM.

On to `CNC(=O)COc1cc2cc(Nc3nc(N4CCN(CC5CCN(c6ccc(C7CCC(=O)NC7=O)cn6)CC5)CC4)ncc3Cl)ccc2n(C)c1=O` (stereo not drawn) [Compound 39], for which the half-maximal degradation concentration (DC50) was under 10 nM.

Molecule `[2H]C([2H])([2H])NC(=O)COc1cc2cc(Nc3nc(N4CCN(CC5CCN(c6ccc(C7CCC(=O)NC7=O)cc6)CC5)CC4)ncc3Cl)ccc2n(C)c1=O` (stereo not drawn) [Compound 47] had a DC50 of under 10 nM.

`C#CCn1c(=O)c(OCC(=O)NC)cc2cc(Nc3nc(N4CCC(CN5CCN6c7ccc(C8CCC(=O)NC8=O)cc7CCC6C5)CC4)ncc3Cl)ccc21` (stereo not drawn) [Compound 50] showed a DC50 of under 10 nM.

Turning to `CNC(=O)COc1cc2cc(Nc3nc(N4CCC(CN5CCN6c7ccc(C8CCC(=O)NC8=O)cc7CCC6C5)CC4)ncc3Cl)ccc2n(C2CC2)c1=O` (stereo not drawn) [Compound 51], the DC50 is under 10 nM.

In turn, `CNC(=O)COc1cc2cc(Nc3nc(N4CCC(O[C@H]5C[C@H](N6CCN(c7ccc(C8CCC(=O)NC8=O)cc7)CC6)C5)CC4)ncc3Cl)ccc2n(C(C)C)c1=O` (stereo partly drawn) [Compound 95] displayed a DC50 of under 10 nM.

`CNC(=O)COc1cc2cc(Nc3nc(N4CCC(O[C@H]5C[C@H](N6CCN(c7ccc(C8CCC(=O)NC8=O)c(F)c7)CC6)C5)CC4)ncc3Cl)ccc2n(C(C)C)c1=O` (stereo partly drawn) [Compound 96] showed a half-maximal degradation concentration (DC50) of under 10 nM.

The molecule `CC(=O)COc1cc2cc(Nc3nc(N4CCC(N5CCN(c6ccc(NC7CCC(=O)NC7=O)cc6F)CC5)C(F)(F)C4)ncc3Cl)ccc2n(C)c1=O` (stereo not drawn) [Trifluoroacetate of compound 5] returned a DC50 of under 10 nM.

Consider `CNC(=O)COc1cc2cc(Nc3nc(N4CCC(N5CCN(c6ccc(NC7CCC(=O)NC7=O)cc6F)CC5)C(F)(F)C4)ncc3Cl)ccc2n(C)c1=O` (stereo not drawn) [Trifluoroacetate of compound 7], for which the DC50 is under 10 nM.

Turning to `CNC(=O)COc1cc2cc(Nc3nc(N4CCC(N(C)C5CCN(c6cccc7c6n(C)c(=O)n7C6CCC(=O)NC6=O)CC5)CC4)ncc3Cl)ccc2n(C)c1=O` (stereo not drawn) [Trifluoroacetate of compound 11], the DC50 is under 10 nM.

As to `CC(=O)COc1cc2cc(Nc3nc(N4CCC(CN5CCN(c6ccc(C7CCC(=O)NC7=O)cc6)CC5)CC4)ncc3Cl)ccc2n(C)c1=O` (stereo not drawn) [Trifluoroacetate of compound 13], the DC50 was under 10 nM.

`CC(=O)COc1cc2cc(Nc3nc(N4CCN(c5ccc(C6CCC(=O)NC6=O)cc5)CC4)ncc3Cl)ccc2n(C)c1=O` (stereo not drawn) [Trifluoroacetate of compound 17] came in with a DC50 of under 10 nM.

For the molecule `CNC(=O)COc1cc2cc(Nc3nc(N4CCN(c5ccc(C6CCC(=O)NC6=O)cc5)CC4)ncc3Cl)ccc2n(C)c1=O` (stereo not drawn) [Trifluoroacetate of compound 20], the DC50 is under 10 nM.

`CNC(=O)COc1cc2cc(Nc3nc(N4CCN(CC5CN(c6ccc(C7CCC(=O)NC7=O)cc6F)C5)CC4)ncc3Cl)ccc2n(C)c1=O` (stereo not drawn) [Trifluoroacetate of compound 40] had a DC50 of under 10 nM.

Regarding `CNC(=O)COc1cc2cc(Nc3nc(N4CCN(CC5CCN(c6ccc(C7CCC(=O)NC7=O)cc6F)CC5)CC4)ncc3Cl)ccc2n(C)c1=O` (stereo not drawn) [Trifluoroacetate of compound 41], the DC50 was under 10 nM.

`CNC(=O)COc1cc2cc(Nc3nc(N4CCN(CC5CCN(c6ccc(C7CCC(=O)NC7=O)cc6)CC5)CC4)ncc3Cl)ccc2n(C(C)C)c1=O` (stereo not drawn) [Trifluoroacetate of compound 42] showed a DC50 of under 10 nM.

`C#CCn1c(=O)c(OCC(=O)NC)cc2cc(Nc3nc(N4CCN(CC5CCN(c6ccc(C7CCC(=O)NC7=O)c(F)c6)CC5)CC4)ncc3Cl)ccc21` (stereo not drawn) [Trifluoroacetate of compound 52]: the DC50 is under 10 nM.

`CNC(=O)COc1cc2cc(Nc3nc(N4CCN(CC5CCN(c6ccc(C7CCC(=O)NC7=O)c(F)c6)CC5)CC4)ncc3Cl)ccc2n(C2CC2)c1=O` (stereo not drawn) [Trifluoroacetate of compound 53] registered a DC50 of under 10 nM.

The molecule `CNC(=O)COc1cc2cc(Nc3nc(N4CCC(CN5CCN6c7ccc(C8CCC(=O)NC8=O)cc7CCC6C5)CC4)ncc3Cl)ccc2n(C(C)C)c1=O` (stereo not drawn) [Trifluoroacetate of compound 54] had a DC50 of under 10 nM.

`CNC(=O)COc1cc2cc(Nc3nc(N4CCN(CC5CCN(c6cccc(C7CCC(=O)NC7=O)c6)CC5)CC4)ncc3Cl)ccc2n(C)c1=O` (stereo not drawn) [Trifluoroacetate of compound 55] had a half-maximal degradation concentration (DC50) of under 10 nM.

`CCn1c(=O)c(OCC(=O)NC)cc2cc(Nc3nc(N4CCC(O[C@H]5C[C@H](N6CCN7c8cc(F)c(C9CCC(=O)NC9=O)cc8CC[C@H]7C6)C5)CC4)ncc3Cl)ccc21` (stereo partly drawn) [Trifluoroacetate of compound 61] displayed a DC50 of under 10 nM.

On to `CCn1c(=O)c(OCC(=O)NC)cc2cc(Nc3nc(N4CCN(CC5CCN(c6ccc(C7CCC(=O)NC7=O)c(F)c6)CC5)CC4)ncc3Cl)ccc21` (stereo not drawn) [Trifluoroacetate of compound 68], for which the DC50 is under 10 nM.

Take `CCn1c(=O)c(OCC(=O)NC)cc2cc(Nc3nc(N4CCN(CC5CCN(c6ccc(C7CCC(=O)NC7=O)cc6)CC5)CC4)ncc3Cl)ccc21` (stereo not drawn) [Trifluoroacetate of compound 69]: the DC50 is under 10 nM.

In the case of `CNC(=O)COc1cc2cc(Nc3nc(N4CCC(O[C@H]5C[C@H](N6CCN7c8cc(F)c(C9CCC(=O)NC9=O)cc8CC[C@@H]7C6)C5)CC4)ncc3Cl)ccc2n(C(C)C)c1=O` (stereo partly drawn) [Trifluoroacetate of compound 70], the DC50 was under 10 nM.

Consider `[2H]C([2H])([2H])NC(=O)COc1cc2cc(Nc3nc(N4CCC(O[C@H]5C[C@H](N6CCN7c8cc(F)c(C9CCC(=O)NC9=O)cc8CC[C@H]7C6)C5)CC4)ncc3Cl)ccc2n(C(C)C)c1=O` (stereo partly drawn) [Trifluoroacetate of compound 84], for which the half-maximal degradation concentration (DC50) was under 10 nM.

Molecule `[2H]C([2H])([2H])NC(=O)COc1cc2cc(Nc3nc(N4CCC(CN5CCN6c7cc(F)c(C8CCC(=O)NC8=O)cc7CC[C@H]6C5)CC4)ncc3Cl)ccc2n(C(C)C)c1=O` (stereo partly drawn) [Trifluoroacetate of compound 85] registered a DC50 of under 10 nM.

`[2H]C([2H])([2H])n1c(=O)c(OCC(=O)NC)cc2cc(Nc3nc(N4CCC(O[C@H]5C[C@H](N6CCN7c8cc(F)c(C9CCC(=O)NC9=O)cc8CC[C@@H]7C6)C5)CC4)ncc3Cl)ccc21` (stereo partly drawn) [Trifluoroacetate of compound 90] gave a DC50 of under 10 nM.

For `[2H]C([2H])([2H])NC(=O)COc1cc2cc(Nc3nc(N4CCC(O[C@H]5C[C@H](N6CCN7c8cc(F)c(C9CCC(=O)NC9=O)cc8CC[C@@H]7C6)C5)CC4)ncc3Cl)ccc2n(C([2H])([2H])[2H])c1=O` (stereo partly drawn) [Trifluoroacetate of compound 91], the DC50 was under 10 nM.

`[2H]C([2H])([2H])NC(=O)COc1cc2cc(Nc3nc(N4CCC(O[C@H]5C[C@H](N6CCN7c8cc(F)c(C9CCC(=O)NC9=O)cc8CC[C@@H]7C6)C5)CC4)ncc3Cl)ccc2n(C)c1=O` (stereo partly drawn) [Trifluoroacetate of compound 92] showed a 50% degradation concentration (DC50) of under 10 nM.

Molecule `[2H]C([2H])([2H])NC(=O)COc1cc2cc(Nc3nc(N4CCC(O[C@H]5C[C@H](N6CCN7c8cc(F)c(C9CCC(=O)NC9=O)cc8CC[C@@H]7C6)C5)CC4)ncc3Cl)ccc2n(C(C)C)c1=O` (stereo partly drawn) [Trifluoroacetate of compound 93] gave a DC50 of under 10 nM.

Consider `CNC(=O)COc1cc2cc(Nc3nc(N4CCC(F)(CN5CCN6c7cc(F)c(C8CCC(=O)NC8=O)cc7CC[C@H]6C5)CC4)ncc3Cl)ccc2n(C(C)C)c1=O` (stereo partly drawn) [Trifluoroacetate of compound 94], for which the DC50 was under 10 nM.

Consider `CNC(=O)COc1cc2cc(Nc3nc(N4CCC(F)(CN5CCN6c7cc(F)c(C8CCC(=O)NC8=O)cc7CC[C@@H]6C5)CC4)ncc3Cl)ccc2n(C(C)C)c1=O` (stereo partly drawn) [Trifluoroacetate of compound 98], for which the DC50 was under 10 nM.

`CNC(=O)COc1cc2cc(Nc3nc(N4CC[C@H](O[C@H]5C[C@H](N6CCN7c8cc(F)c(C9CCC(=O)NC9=O)cc8CC[C@H]7C6)C5)[C@@H](F)C4)ncc3Cl)ccc2n(C(C)C)c1=O` (stereo partly drawn) [Trifluoroacetate of compound 109] displayed a DC50 of under 10 nM.

Test system in another data set: not listed separately
As to the kind of experiment: Pharmacokinetic test in mice. Particulars: male, ICR, mouse, po; mice plasma, i.g. 5 mg/kg. It is filed as in vivo, ICR mice. The procedure:
3. Pharmacokinetic Test in Mice
1.1 Experimental animal: male ICR mice, 25-30 g, 6 mice/compound, purchased from Chengdu Ddossy Experimental Animals Co., Ltd.
1.2 Experimental design: on the day of the experiment, the ICR mice were randomly grouped according to their body weights. The animals were fasted but with water available for 12 to 14 h one day before the administration, and were fed 4 h after the administration.
For `CNC(=O)COc1cc2cc(Nc3nc(N4CCN(CC5CCN(c6cccc7c6C(=O)N(C6CCC(=O)NC6=O)C7=O)CC5)CC4)ncc3Cl)ccc2n(C)c1=O` (stereo not drawn) [Control compound 1, reference compound], the AUC(0-t) – broadly, exposure summed from dosing to a finite time, without extrapolation to infinity – is under 100 ng·h/mL.

The molecule `CC(=O)COc1cc2cc(Nc3nc(N4CCC(CN5CCN(c6ccc(C7CCC(=O)NC7=O)cc6)CC5)CC4)ncc3Cl)ccc2n(C)c1=O` (stereo not drawn) [Trifluoroacetate of compound 13] came in with an AUC(0-t) of over 1000 ng·h/mL.

Still in this data set, the particulars now being: mice, i.g. 5 mg/kg.
`CNC(=O)COc1cc2cc(Nc3nc(N4CCN(CC5CCN(c6cccc7c6C(=O)N(C6CCC(=O)NC6=O)C7=O)CC5)CC4)ncc3Cl)ccc2n(C)c1=O` (stereo not drawn) [Control compound 1, reference compound] displayed an F of under 5%.

The values are drawn from US20250333410A1, “COMPOUND FOR INHIBITING OR DEGRADING BCL6 AND USE THEREOF IN PHARMACEUTICS” (XIZANG HAISCO PHARMACEUTICAL CO., LTD., priority 2022, published 2025).
